In PubChem BioAssay AID624355 (The Scripps Research Institute Molecular Screening Center, 2012):
The source made the active and inactive calls.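 How the source made its calls: active means inhibition of at least 50% in a panel; inactive means the rest.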

Tests used:
Test in all cases: off-target binding across receptors and transporters, profiling panel, selectivity assay for STAT3/NF-kB dual inhibitor project, cell-based, radioligand binding, single concentration (AID 624355)
[1] = test system: Leukotriene, Cysteinyl CysLT1; conditions: Ricerca radioligand binding panel, at 10 µM, hits give high values
[2] = biological target: Kappa-type opioid receptor (Homo sapiens) (UniProt P41145); conditions: Ricerca radioligand binding panel, Opiate (OP2, KOP), at 10 µM, hits give high values
Chain of Kappa-type opioid receptor (Homo sapiens) (P41145 whole entry, looked up): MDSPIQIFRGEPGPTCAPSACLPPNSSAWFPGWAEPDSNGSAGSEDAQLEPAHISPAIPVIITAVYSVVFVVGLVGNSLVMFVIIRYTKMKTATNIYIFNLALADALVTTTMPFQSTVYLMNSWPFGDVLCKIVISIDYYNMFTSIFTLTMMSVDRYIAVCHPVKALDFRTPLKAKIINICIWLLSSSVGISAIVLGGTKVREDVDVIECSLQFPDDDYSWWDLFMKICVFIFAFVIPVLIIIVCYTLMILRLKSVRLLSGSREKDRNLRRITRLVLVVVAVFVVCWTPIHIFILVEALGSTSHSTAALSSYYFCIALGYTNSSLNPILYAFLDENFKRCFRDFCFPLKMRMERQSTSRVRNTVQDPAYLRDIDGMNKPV

[3] = test system: Thyroid Hormone; conditions: Ricerca radioligand binding panel, at 10 µM, hits give high values
[4] = test system: Prostanoid EP4; conditions: Ricerca radioligand binding panel, at 10 µM, hits give high values
[5] = biological target: Beta-2 adrenergic receptor (Homo sapiens) (UniProt P07550); conditions: Ricerca radioligand binding panel, Adrenergic B2, at 10 µM, hits give high values
Chain of Beta-2 adrenergic receptor (Homo sapiens) (P07550 whole entry, looked up): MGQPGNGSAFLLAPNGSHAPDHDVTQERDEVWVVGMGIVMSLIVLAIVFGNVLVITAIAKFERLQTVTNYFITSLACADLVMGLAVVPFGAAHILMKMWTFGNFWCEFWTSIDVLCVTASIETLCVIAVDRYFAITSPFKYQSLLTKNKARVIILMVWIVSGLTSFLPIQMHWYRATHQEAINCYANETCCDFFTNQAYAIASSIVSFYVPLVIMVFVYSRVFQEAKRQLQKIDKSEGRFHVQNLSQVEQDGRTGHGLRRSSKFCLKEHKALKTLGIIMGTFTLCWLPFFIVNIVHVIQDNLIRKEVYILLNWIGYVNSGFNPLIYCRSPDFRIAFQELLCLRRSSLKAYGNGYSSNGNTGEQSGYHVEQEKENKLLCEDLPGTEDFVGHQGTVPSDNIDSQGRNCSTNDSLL

[6] = test system: Cannabinoid CB1; conditions: Ricerca radioligand binding panel, at 10 µM, hits give high values
[7] = biological target: Estrogen receptor (Homo sapiens) (UniProt P03372); conditions: Ricerca radioligand binding panel, Estrogen Era, at 10 µM, hits give high values
Chain of Estrogen receptor (Homo sapiens) (P03372 whole entry, looked up): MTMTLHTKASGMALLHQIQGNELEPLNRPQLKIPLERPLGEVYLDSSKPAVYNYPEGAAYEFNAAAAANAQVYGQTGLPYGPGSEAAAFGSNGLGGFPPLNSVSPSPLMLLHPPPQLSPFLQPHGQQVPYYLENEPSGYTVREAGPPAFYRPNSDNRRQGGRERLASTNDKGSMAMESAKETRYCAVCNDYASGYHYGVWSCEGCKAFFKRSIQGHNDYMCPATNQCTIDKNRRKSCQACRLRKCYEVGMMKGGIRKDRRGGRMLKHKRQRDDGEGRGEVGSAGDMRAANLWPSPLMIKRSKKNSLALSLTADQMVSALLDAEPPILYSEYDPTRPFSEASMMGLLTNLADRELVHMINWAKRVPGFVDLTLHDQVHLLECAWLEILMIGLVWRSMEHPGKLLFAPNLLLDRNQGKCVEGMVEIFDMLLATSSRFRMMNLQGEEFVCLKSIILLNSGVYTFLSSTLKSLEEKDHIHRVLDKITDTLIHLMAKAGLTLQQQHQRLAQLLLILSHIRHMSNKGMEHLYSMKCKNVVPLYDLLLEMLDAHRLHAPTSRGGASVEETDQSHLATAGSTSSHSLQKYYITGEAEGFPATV

[8] = test system: Adenosine A3; conditions: Ricerca radioligand binding panel, at 10 µM, hits give high values
[9] = test system: Bradykinin B2; conditions: Ricerca radioligand binding panel, at 10 µM, hits give high values
[10] = test system: Epidermal Growth Factor (EGF); conditions: Ricerca radioligand binding panel, at 10 µM, hits give high values
[11] = test system: Opiate (OP3, MOP); conditions: Ricerca radioligand binding panel, at 10 µM, hits give high values
[12] = test system: Glutamate, Kainate; conditions: Ricerca radioligand binding panel, at 10 µM, hits give high values
[13] = test system: Rolipram; conditions: Ricerca radioligand binding panel, at 10 µM, hits give high values
[14] = test system: Interleukin IL-1; conditions: Ricerca radioligand binding panel, at 10 µM, hits give high values
[15] = test system: Voltage-dependent L-type calcium channel subunit beta-4 (Rattus norvegicus) + Pro-epidermal growth factor (Homo sapiens) + Estrogen receptor (Homo sapiens) + Glucocorticoid receptor (Homo sapiens) + 5-hydroxytryptamine receptor 1A (Homo sapiens) + Alpha-2A adrenergic receptor (Homo sapiens) + Adenosine receptor A3 (Homo sapiens) + Androgen receptor (Homo sapiens) + Muscarinic acetylcholine receptor M1 (Homo sapiens) + D(4) dopamine receptor (Homo sapiens) + Alpha-2A adrenergic receptor (Rattus norvegicus) + Sodium- and chloride-dependent GABA transporter 1 (Rattus norvegicus) + Endothelin receptor type B (Homo sapiens) + Histamine H2 receptor (Homo sapiens) + Endothelin-1 receptor (Homo sapiens) + Neuropeptide Y receptor type 1 (Homo sapiens) + B2 bradykinin receptor (Homo sapiens) + Sodium-dependent serotonin transporter (Homo sapiens) + Histamine H1 receptor (Homo sapiens) + Mu-type opioid receptor (Homo sapiens) + D(3) dopamine receptor (Homo sapiens) + Delta-type opioid receptor (Homo sapiens) + Kappa-type opioid receptor (Homo sapiens) + Glutamate receptor ionotropic, kainate 3 (Rattus norvegicus) + 5-hydroxytryptamine receptor 3A (Homo sapiens) + Melatonin receptor type 1A (Homo sapiens) + Neuropeptide Y receptor type 2 (Homo sapiens) + P2Y purinoceptor 1 (Rattus norvegicus) + Thyroid hormone receptor alpha (Rattus norvegicus) + Glutamate receptor ionotropic, NMDA 2B (Rattus norvegicus) + Sodium-dependent dopamine transporter (Homo sapiens) + Protein kinase C zeta type …; conditions: Ricerca radioligand binding panel, at 10 µM, hits give high values
[16] = biological target: Neuropeptide Y receptor type 1 (Homo sapiens) (UniProt P25929); conditions: Ricerca radioligand binding panel, Neuropeptide Y Y1, at 10 µM, hits give high values
[17] = test system: Adrenergic a1A; conditions: Ricerca radioligand binding panel, at 10 µM, hits give high values
[18] = test system: Calcium Channel L-Type, Benzothiazepine; conditions: Ricerca radioligand binding panel, Benzothiazepine site, at 10 µM, hits give high values
[19] = test system: GABAB1A; conditions: Ricerca radioligand binding panel, at 10 µM, hits give high values
[20] = test system: Nicotinic Acetylcholine; conditions: Ricerca radioligand binding panel, at 10 µM, hits give high values
[21] = test system: Histamine H1; conditions: Ricerca radioligand binding panel, at 10 µM, hits give high values
[22] = test system: Adenosine A1; conditions: Ricerca radioligand binding panel, at 10 µM, hits give high values
[23] = test system: Melatonin MT1; conditions: Ricerca radioligand binding panel, at 10 µM, hits give high values
[24] = test system: Transporter, Serotonin (5-Hydroxytryptamine); conditions: Ricerca radioligand binding panel, at 10 µM, hits give high values
[25] = test system: Potassium Channel KATP; conditions: Ricerca radioligand binding panel, at 10 µM, hits give high values
[26] = biological target: Alpha-2A adrenergic receptor (Homo sapiens) (UniProt P08913); conditions: Ricerca radioligand binding panel, Adrenergic a2A, at 10 µM, hits give high values
Chain of Alpha-2A adrenergic receptor (Homo sapiens) (P08913 whole entry, looked up): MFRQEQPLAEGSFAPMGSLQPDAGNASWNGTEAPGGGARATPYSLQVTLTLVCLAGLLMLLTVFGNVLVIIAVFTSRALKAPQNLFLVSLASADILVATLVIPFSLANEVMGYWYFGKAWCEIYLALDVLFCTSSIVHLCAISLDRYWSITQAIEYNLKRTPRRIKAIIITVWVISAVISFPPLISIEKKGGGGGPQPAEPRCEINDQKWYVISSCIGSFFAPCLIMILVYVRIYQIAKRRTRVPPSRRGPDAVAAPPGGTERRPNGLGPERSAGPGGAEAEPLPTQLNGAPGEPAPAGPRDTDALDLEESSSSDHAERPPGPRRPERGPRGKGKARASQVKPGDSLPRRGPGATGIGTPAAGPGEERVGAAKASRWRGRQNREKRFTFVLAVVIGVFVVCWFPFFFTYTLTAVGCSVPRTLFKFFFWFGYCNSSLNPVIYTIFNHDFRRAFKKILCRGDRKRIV

[27] = test system: Adrenergic a1D; conditions: Ricerca radioligand binding panel, at 10 µM, hits give high values
[28] = biological target: Muscarinic acetylcholine receptor M3 (Homo sapiens) (UniProt P20309); conditions: Ricerca radioligand binding panel, at 10 µM, hits give high values
Chain of Muscarinic acetylcholine receptor M3 (Homo sapiens) (P20309 whole entry, looked up): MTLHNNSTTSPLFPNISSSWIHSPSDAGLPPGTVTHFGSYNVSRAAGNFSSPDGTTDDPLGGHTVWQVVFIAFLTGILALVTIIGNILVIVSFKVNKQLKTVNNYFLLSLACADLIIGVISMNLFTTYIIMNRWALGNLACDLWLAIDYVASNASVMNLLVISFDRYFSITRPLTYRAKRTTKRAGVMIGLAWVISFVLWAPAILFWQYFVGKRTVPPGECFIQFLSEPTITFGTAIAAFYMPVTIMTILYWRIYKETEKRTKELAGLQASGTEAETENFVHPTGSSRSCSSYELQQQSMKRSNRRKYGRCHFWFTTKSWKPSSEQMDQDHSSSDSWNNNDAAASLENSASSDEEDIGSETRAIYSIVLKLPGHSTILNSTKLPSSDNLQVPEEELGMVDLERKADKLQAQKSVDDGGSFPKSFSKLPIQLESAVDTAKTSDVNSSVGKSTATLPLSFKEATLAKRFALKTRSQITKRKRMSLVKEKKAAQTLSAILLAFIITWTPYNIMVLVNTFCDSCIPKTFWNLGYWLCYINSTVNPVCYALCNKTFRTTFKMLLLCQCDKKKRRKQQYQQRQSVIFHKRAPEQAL

[29] = test system: Adrenergic a1B; conditions: Ricerca radioligand binding panel, at 10 µM, hits give high values
[30] = test system: Purinergic P2Y; conditions: Ricerca radioligand binding panel, at 10 µM, hits give high values
[31] = test system: Endothelin ETA; conditions: Ricerca radioligand binding panel, at 10 µM, hits give high values
[32] = biological target: 5-hydroxytryptamine receptor 2B (Homo sapiens) (UniProt P41595); conditions: Ricerca radioligand binding panel, Serotonin (5-Hydroxytryptamine) 5-HT2B, at 10 µM, hits give high values
Chain of 5-hydroxytryptamine receptor 2B (Homo sapiens) (P41595 whole entry, looked up): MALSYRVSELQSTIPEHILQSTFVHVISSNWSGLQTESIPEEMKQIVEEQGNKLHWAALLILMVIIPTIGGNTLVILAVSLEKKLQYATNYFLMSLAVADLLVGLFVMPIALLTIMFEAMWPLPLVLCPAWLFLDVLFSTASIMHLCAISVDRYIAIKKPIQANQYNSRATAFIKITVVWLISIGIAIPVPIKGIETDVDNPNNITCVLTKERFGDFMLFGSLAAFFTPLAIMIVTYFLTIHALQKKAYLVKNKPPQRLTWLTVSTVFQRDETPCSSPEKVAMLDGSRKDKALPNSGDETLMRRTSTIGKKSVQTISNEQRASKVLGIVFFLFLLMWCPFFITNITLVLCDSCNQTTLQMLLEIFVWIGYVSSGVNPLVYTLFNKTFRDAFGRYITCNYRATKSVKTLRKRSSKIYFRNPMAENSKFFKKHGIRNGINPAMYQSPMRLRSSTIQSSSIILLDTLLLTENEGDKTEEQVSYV

[33] = test system: Androgen (Testosterone) AR; conditions: Ricerca radioligand binding panel, at 10 µM, hits give high values
[34] = biological target: Platelet-activating factor receptor (Homo sapiens) (UniProt P25105); conditions: Ricerca radioligand binding panel, Platelet Activating Factor (PAF), at 10 µM, hits give high values
Chain of Platelet-activating factor receptor (Homo sapiens) (P25105 whole entry, looked up): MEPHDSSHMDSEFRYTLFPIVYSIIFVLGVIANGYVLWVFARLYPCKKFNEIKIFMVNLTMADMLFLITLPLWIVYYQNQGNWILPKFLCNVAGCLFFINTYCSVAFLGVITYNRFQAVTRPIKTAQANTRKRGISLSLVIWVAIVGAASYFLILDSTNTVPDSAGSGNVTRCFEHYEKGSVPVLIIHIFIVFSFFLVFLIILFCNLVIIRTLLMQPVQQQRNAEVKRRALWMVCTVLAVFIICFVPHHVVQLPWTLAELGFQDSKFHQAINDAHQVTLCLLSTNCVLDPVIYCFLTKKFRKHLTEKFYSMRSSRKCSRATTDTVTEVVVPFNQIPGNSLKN

[35] = test system: GABAA, Muscimol, Central; conditions: Ricerca radioligand binding panel, Muscimol site, at 10 µM, hits give high values
[36] = biological target: 5-hydroxytryptamine receptor 1A (Homo sapiens) (UniProt P08908); conditions: Ricerca radioligand binding panel, Serotonin (5-Hydroxytryptamine) 5-HT1A, at 10 µM, hits give high values
[37] = biological target: Delta-type opioid receptor (Homo sapiens) (UniProt P41143); conditions: Ricerca radioligand binding panel, Opiate (OP1, DOP), at 10 µM, hits give high values
Chain of Delta-type opioid receptor (Homo sapiens) (P41143 whole entry, looked up): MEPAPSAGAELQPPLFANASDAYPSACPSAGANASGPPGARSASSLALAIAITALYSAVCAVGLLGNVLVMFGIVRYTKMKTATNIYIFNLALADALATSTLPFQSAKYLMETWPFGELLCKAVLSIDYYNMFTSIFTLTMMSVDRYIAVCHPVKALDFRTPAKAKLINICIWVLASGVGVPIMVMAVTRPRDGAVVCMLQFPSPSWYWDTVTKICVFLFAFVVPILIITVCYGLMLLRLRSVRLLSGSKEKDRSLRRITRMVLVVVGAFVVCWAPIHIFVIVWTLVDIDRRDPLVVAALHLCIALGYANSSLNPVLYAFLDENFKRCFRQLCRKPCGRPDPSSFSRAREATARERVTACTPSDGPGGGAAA

[38] = biological target: Muscarinic acetylcholine receptor M1 (Homo sapiens) (UniProt P11229); conditions: Ricerca radioligand binding panel, at 10 µM, hits give high values
Chain of Muscarinic acetylcholine receptor M1 (Homo sapiens) (P11229 whole entry, looked up): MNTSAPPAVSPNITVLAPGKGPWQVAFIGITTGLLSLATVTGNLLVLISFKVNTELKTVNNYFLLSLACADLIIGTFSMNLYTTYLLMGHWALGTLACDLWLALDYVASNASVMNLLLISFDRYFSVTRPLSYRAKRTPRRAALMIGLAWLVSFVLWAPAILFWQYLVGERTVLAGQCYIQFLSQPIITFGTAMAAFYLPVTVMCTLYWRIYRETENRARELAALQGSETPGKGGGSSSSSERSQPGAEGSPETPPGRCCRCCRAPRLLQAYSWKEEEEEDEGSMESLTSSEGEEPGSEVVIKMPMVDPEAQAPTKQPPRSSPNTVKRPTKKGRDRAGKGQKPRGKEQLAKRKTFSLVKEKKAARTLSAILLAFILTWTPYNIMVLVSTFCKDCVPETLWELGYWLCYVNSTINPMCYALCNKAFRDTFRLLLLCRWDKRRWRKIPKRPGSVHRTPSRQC

[39] = test system: GABAA, Flunitrazepam, Central; conditions: Ricerca radioligand binding panel, Flunitrazepam site, at 10 µM, hits give high values
[40] = test system: Phorbol Ester; conditions: Ricerca radioligand binding panel, at 10 µM, hits give high values
[41] = test system: Histamine H3; conditions: Ricerca radioligand binding panel, at 10 µM, hits give high values
[42] = test system: Tachykinin NK1; conditions: Ricerca radioligand binding panel, at 10 µM, hits give high values
[43] = biological target: D(3) dopamine receptor (Homo sapiens) (UniProt P35462); conditions: Ricerca radioligand binding panel, Dopamine D3, at 10 µM, hits give high values
[44] = test system: Histamine H2; conditions: Ricerca radioligand binding panel, at 10 µM, hits give high values
[45] = test system: Transporter, Dopamine (DAT); conditions: Ricerca radioligand binding panel, at 10 µM, hits give high values
[46] = biological target: D(1A) dopamine receptor (Homo sapiens) (UniProt P21728); conditions: Ricerca radioligand binding panel, Dopamine D1, at 10 µM, hits give high values
[47] = test system: Dopamine D2S; conditions: Ricerca radioligand binding panel, at 10 µM, hits give high values
[48] = test system: Purinergic P2X; conditions: Ricerca radioligand binding panel, at 10 µM, hits give high values
[49] = test system: Transporter, Norepinephrine (NET); conditions: Ricerca radioligand binding panel, at 10 µM, hits give high values
[50] = biological target: Glucocorticoid receptor (Homo sapiens) (UniProt P04150); conditions: Ricerca radioligand binding panel, at 10 µM, hits give high values
[51] = test system: Serotonin (5-Hydroxytryptamine) 5-HT3; conditions: Ricerca radioligand binding panel, at 10 µM, hits give high values
[52] = test system: Calcium Channel L-Type, Dihydropyridine; conditions: Ricerca radioligand binding panel, Dihydropyridine site, at 10 µM, hits give high values
[53] = biological target: Voltage-gated inwardly rectifying potassium channel KCNH2 (Homo sapiens) (UniProt Q12809); conditions: Ricerca radioligand binding panel, Potassium Channel hERG, at 10 µM, hits give high values
[54] = biological target: Neuropeptide Y receptor type 2 (Homo sapiens) (UniProt P49146); conditions: Ricerca radioligand binding panel, Neuropeptide Y Y2, at 10 µM, hits give high values
Chain of Neuropeptide Y receptor type 2 (Homo sapiens) (P49146 whole entry, looked up): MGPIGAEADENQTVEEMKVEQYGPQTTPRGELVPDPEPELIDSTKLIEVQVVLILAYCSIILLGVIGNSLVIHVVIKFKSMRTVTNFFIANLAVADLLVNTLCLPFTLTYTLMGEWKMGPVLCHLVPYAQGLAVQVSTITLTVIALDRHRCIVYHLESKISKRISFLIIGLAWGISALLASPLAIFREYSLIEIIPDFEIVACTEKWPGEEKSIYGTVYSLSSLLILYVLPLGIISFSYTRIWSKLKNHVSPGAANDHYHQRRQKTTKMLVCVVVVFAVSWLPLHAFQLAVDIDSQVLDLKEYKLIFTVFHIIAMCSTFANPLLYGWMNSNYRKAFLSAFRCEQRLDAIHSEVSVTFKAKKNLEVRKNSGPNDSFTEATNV

[55] = test system: Glutamate, NMDA, Phencyclidine; conditions: Ricerca radioligand binding panel, Phencyclidine site, at 10 µM, hits give high values
[56] = test system: Imidazoline I2, Central; conditions: Ricerca radioligand binding panel, at 10 µM, hits give high values
[57] = test system: Bradykinin B1; conditions: Ricerca radioligand binding panel, at 10 µM, hits give high values
[58] = test system: Glutamate, NMDA, Agonism; conditions: Ricerca radioligand binding panel, Agonism site, at 10 µM, hits give high values
[59] = test system: Adenosine A2A; conditions: Ricerca radioligand binding panel, at 10 µM, hits give high values
[60] = test system: Transporter, GABA; conditions: Ricerca radioligand binding panel, at 10 µM, hits give high values
[61] = biological target: Muscarinic acetylcholine receptor M2 (Homo sapiens) (UniProt P08172); conditions: Ricerca radioligand binding panel, at 10 µM, hits give high values
Chain of Muscarinic acetylcholine receptor M2 (Homo sapiens) (P08172 whole entry, looked up): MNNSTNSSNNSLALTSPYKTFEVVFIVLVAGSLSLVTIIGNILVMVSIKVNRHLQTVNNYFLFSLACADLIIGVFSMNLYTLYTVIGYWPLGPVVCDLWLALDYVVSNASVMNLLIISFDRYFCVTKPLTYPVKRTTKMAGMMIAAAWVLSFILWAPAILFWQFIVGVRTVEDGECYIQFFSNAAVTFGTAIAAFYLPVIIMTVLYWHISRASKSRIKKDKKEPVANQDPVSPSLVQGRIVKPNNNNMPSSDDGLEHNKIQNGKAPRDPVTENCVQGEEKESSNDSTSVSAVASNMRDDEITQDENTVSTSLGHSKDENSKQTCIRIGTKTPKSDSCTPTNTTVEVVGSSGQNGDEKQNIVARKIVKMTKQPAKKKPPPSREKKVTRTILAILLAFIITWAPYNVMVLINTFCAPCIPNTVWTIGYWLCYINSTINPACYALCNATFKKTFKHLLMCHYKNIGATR

[62] = test system: Calcium Channel N-Type; conditions: Ricerca radioligand binding panel, at 10 µM, hits give high values
[63] = test system: Endothelin ETB; conditions: Ricerca radioligand binding panel, at 10 µM, hits give high values
[64] = test system: Glutamate, NMDA, Glycine; conditions: Ricerca radioligand binding panel, Glycine site, at 10 µM, hits give high values
[65] = test system: Adrenergic B1; conditions: Ricerca radioligand binding panel, at 10 µM, hits give high values
[66] = test system: Sigma1; conditions: Ricerca radioligand binding panel, at 10 µM, hits give high values
[67] = test system: Dopamine D4.2; conditions: Ricerca radioligand binding panel, at 10 µM, hits give high values

Measured: inhibition

COc1ccc(CC2CCN(c3ncnc4sccc34)CC2)cc1
inactive: [1] -3% | [3] 9% | [4] 27% | [5] 10% | [6] 28% | [7] 1% | [8] 23% | [9] 8% | [10] 2% | [12] -3% | [13] 12% | [14] 9% | [15] 3% | [16] 2% | [17] 28% | [18] 8% | [19] 10% | [20] -26% | [21] 8% | [24] 44% | [25] 18% | [27] 19% | [28] 11% | [29] 6% | [30] -7% | [31] 21% | [32] 47% | [33] 11% | [34] 30% | [36] 1% | [37] 27% | [38] -5% | [39] -6% | [40] 10% | [41] -2% | [42] 6% | [44] -8% | [46] 7% | [47] 11% | [48] -12% | [50] 15% | [51] -13% | [52] 47% | [53] 28% | [54] 11% | [55] 13% | [56] 15% | [57] 4% | [58] 9% | [59] 31% | [60] 1% | [61] 4% | [62] -2% | [63] 6% | [64] 1% | [65] 23% | [66] 13% | [67] 4%
active: [2] 69% | [11] 55% | [22] 52% | [23] 68% | [26] 56% | [35] 58% | [43] 51% | [45] 98% | [49] 80%
